Test results reported in ChEMBL document CHEMBL1201862, “PubChem BioAssay data set” (2004).
Active and inactive are the calls of the source.

Legend:
[1] = tested on: HEK293; assay: NOD2 signaling inhibitors in MDP-stimulated cells, cell-based, uHTS, luminescence (AID 2001); format: functional; settings: Homo sapiens
[2] = tested on: HEK293; assay: inhibition of NOD1-driven NF-kB reporter – cell-based, luminescence, uHTS, primary screen (AID 1578); format: functional; settings: Homo sapiens
[3] = tested on: HEK293; assay: cells; format: functional, cell-based; settings: Homo sapiens
[4] = tested on: HEK293; assay: cells; format: functional, cell-based; settings: Homo sapiens; remark: listed apart in the source
[5] = Luminescence Cell-Based Dose Response HTS to Identify Inhibitors of 5'UTR Stem-Loop Driven Prion Protein mRNA Translation in H4 Neuroglioblastoma Cells. [Related pubchem assays: 1827 (Project Summary), 1813 (Primary HTS)]; format: functional
[6] = luciferase reporter signal suppression in cells – H4 neuroglioma cells, luminescence, dose response (AID 1990); format: functional, cell-based
[7] = tested on: HEK293; assay: cells; settings: Homo sapiens
[8] = alpha-synuclein stem-loop luciferase translation blockers – H4 neuroglioma cells, luminescence, confirmation (AID 1988); format: functional, cell-based
[9] = tested on: HEK293; assay: cells; settings: Homo sapiens; remark: listed apart in the source
[10] = biological target: Cytochrome P450 2D6 (Homo sapiens, UniProt P10635);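 note: CYP2D6 member of a cytochrome P450 panel assay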
Cytochrome P450 2D6, sequence (P10635 whole entry): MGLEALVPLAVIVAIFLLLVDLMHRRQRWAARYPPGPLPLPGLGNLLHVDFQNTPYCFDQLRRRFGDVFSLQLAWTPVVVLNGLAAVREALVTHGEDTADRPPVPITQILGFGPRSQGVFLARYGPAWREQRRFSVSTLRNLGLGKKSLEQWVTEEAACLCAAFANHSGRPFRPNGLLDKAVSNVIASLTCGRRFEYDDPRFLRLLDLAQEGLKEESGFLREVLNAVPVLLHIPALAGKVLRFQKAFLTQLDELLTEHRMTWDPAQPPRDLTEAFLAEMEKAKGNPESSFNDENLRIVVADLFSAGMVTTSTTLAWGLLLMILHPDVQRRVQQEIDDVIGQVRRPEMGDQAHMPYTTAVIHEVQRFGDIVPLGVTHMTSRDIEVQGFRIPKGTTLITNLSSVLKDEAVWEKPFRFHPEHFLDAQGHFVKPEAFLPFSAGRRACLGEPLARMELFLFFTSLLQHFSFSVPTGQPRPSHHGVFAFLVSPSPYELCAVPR

[11] = Counterscreen for antagonists of the orexin 1 receptor (OX1R; HCRTR1): Fluorescence-based cell-based high throughput dose response assay to identify antagonists of the parental CHO cell line. [Related pubchem assays (depositor defined):AID434989, AID435008, AID463079, AID485270, AID492963, AID492964, AID492965, AID493232, AID504699, AID504701]; format: functional
[12] = biological target: T1, Heat shock factor protein 1 (Mus musculus, UniProt P38532); assay: decrease of HSF1-responsive luciferase luminescence – cell-based, NIH3T3, dose retest, confirmation (AID 2382); format: functional;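 note: NIH3T3 fibroblasts with HSF1-driven luciferase reporter stressed by proteasome inhibitor MG132; luminescence from HSF1-driven luciferase expression after 8 hours of MG132 stress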
T1 sequence (P38532 whole entry): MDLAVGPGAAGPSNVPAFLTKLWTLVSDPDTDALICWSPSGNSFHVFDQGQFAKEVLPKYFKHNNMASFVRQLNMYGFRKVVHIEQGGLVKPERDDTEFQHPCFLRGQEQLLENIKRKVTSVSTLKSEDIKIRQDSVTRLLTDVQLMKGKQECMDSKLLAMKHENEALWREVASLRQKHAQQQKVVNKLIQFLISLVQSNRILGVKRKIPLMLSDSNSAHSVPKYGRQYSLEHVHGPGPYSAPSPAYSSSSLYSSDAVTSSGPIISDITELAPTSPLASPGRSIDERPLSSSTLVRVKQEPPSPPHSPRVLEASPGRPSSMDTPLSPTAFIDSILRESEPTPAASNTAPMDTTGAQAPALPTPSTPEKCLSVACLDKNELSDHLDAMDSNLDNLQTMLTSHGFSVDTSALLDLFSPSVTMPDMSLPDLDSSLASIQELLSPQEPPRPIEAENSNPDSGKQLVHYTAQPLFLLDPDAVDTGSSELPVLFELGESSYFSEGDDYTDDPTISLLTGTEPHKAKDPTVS

[13] = tested on: CHO-K1; assay: Counterscreen for antagonists of the orexin 1 receptor (OX1R; HCRTR1): Homogeneous time resolved fluorescence (HTRF)-based cell-based dose response assay to identify antagonists of the parental CHO-K1 cell line. [Related pubchem assays (depositor defined):AID434989, AID435008, AID463079, AID485270, AID492963, AID492964, AID492965, AID493232, AID504699, AID504701]; format: functional; settings: Cricetulus griseus;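 note: potency for inhibition of ATP-stimulated IP1 production as antagonists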
[14] = biological target: T2, Protein RecA (Mycobacterium tuberculosis, UniProt P9WHJ3); assay: Fluorescence Cell-Free Homogeneous Dose Retest to Identify Inhibitors of RecA-Intein Splicing Activity. [Related pubchem assays (depositor defined):AID2097, AID2223, AID489010, AID492950]; format: functional
T2 sequence (P9WHJ3 whole entry): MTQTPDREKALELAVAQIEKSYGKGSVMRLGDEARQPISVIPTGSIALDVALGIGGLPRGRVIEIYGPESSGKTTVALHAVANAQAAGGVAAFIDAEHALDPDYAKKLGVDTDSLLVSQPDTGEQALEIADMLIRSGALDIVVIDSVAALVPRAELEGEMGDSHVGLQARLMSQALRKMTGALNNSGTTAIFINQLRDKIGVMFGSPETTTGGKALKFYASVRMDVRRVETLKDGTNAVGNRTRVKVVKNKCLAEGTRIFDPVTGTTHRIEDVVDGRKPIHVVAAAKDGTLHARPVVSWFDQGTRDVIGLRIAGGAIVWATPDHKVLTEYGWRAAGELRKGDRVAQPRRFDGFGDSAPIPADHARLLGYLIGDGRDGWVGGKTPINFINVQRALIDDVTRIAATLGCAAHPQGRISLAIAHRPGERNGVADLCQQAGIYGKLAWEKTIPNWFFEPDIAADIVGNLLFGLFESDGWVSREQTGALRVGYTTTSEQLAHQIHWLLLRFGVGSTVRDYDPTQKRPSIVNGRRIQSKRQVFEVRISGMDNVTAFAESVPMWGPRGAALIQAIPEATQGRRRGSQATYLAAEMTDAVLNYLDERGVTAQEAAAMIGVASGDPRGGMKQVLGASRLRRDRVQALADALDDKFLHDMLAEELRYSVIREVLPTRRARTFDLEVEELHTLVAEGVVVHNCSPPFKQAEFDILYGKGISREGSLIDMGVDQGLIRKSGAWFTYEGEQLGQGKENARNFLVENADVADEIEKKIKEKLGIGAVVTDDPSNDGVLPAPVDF

[15] = biological target: T3, Replicative DNA helicase DnaB (Mycobacterium tuberculosis, UniProt P9WMR3); assay: DnaB intein splicing inhibitors, dose response, biochemical, cell-free fluorescence (AID 449749); format: functional
T3 sequence (P9WMR3 whole entry): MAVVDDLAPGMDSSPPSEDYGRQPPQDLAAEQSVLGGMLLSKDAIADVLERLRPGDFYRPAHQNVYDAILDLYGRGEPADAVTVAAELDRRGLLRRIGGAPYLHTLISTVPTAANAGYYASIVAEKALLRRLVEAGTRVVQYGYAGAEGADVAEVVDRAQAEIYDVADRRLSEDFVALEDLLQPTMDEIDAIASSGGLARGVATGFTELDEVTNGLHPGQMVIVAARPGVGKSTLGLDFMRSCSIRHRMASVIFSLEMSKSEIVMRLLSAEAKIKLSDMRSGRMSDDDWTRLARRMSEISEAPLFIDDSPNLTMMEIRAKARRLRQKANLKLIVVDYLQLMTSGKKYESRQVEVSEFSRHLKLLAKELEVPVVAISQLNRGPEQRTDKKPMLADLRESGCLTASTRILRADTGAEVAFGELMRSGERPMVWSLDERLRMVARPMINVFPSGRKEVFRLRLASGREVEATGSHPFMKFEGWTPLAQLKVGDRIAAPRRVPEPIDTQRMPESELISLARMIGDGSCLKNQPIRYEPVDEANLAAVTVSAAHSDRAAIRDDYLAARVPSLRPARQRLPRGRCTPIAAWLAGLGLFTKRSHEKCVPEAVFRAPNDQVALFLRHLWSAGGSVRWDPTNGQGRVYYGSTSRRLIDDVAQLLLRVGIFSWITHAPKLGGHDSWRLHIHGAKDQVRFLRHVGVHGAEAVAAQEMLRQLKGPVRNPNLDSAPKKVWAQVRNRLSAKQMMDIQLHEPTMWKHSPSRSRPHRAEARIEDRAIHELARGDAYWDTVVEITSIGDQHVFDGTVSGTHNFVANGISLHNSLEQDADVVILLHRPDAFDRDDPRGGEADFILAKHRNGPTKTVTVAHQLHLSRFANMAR

[16] = biological target: T4, Orexin/Hypocretin receptor type 1 (Homo sapiens, UniProt O43613); assay: Fluorescence-based cell-based high throughput dose response assay for antagonists of the orexin 1 receptor (OX1R; HCRTR1). [Related pubchem assays (depositor defined):AID434989, AID435008, AID463079, AID485270, AID492963, AID492964, AID492965, AID493232, AID504717, AID504718]; format: functional
T4 sequence (O43613 whole entry): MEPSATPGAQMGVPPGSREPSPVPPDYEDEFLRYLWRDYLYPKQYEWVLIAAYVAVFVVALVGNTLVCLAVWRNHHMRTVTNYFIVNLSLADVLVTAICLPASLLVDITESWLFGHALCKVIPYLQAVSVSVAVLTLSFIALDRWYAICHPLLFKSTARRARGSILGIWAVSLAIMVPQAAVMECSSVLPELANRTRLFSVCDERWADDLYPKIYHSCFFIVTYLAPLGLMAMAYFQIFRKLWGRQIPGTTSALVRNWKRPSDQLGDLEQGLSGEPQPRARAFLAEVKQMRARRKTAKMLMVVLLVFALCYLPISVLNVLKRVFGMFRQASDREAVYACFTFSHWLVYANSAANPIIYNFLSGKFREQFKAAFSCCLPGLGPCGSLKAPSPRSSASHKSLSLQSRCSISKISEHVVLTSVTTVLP

[17] = biological target: T4, Orexin/Hypocretin receptor type 1; assay: Homogeneous Time Resolved Fluorescence (HTRF)-based cell-based high throughput dose response assay for antagonists of the orexin 1 receptor (OX1R; HCRTR1). [Related pubchem assays (depositor defined):AID434989, AID435008, AID463079, AID485270, AID492963, AID492964, AID492965, AID493232, AID504717, AID504718]; format: functional
[18] = biological target: T5, Galanin receptor type 3 (Homo sapiens, UniProt O60755); assay: Fluorescence-based cell-based primary high throughput dose response assay to identify antagonists of the Galanin Receptor 3 (GalR3).; format: functional
T5 sequence (O60755 whole entry): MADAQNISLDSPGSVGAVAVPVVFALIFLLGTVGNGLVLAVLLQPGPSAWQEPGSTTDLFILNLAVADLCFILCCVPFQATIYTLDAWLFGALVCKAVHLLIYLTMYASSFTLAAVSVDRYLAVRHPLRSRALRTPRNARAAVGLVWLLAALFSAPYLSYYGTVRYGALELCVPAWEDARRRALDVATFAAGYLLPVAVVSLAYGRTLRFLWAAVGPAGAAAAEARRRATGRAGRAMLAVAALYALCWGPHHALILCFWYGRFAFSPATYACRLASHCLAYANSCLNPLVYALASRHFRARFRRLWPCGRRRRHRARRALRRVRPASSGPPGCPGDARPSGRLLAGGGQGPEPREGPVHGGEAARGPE

[19] = cells; format: functional, cell-based; settings: HEK-CNG
[20] = biological target: Cytochrome P450 2C19 (Homo sapiens, UniProt P33261); assay: Cytochrome panel assay with activity outcomes. Panel member name: p450-cyp2c19 Compounds with AC50 equal or less than 10 uM are considered active; format: functional; settings: read-out: AC50
Cytochrome P450 2C19, sequence (P33261 whole entry): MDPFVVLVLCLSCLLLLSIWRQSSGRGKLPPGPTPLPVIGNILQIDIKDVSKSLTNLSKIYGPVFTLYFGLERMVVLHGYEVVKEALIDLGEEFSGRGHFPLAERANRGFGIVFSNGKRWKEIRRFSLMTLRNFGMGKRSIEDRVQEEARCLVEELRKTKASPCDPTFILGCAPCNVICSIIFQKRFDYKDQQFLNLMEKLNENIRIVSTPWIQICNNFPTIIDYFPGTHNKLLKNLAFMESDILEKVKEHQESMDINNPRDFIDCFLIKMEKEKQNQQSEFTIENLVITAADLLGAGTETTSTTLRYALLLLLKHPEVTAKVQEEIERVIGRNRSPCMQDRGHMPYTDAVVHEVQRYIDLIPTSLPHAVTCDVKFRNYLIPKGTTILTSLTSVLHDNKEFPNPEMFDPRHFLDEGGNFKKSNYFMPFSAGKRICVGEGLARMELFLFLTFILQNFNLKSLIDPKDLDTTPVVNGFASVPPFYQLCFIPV

[21] = biological target: T6, Cytochrome P450 1A2 (Homo sapiens, UniProt P05177);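 note: PubChem cytochrome P450 panel assay, CYP1A2 panel member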
T6 sequence (P05177 whole entry): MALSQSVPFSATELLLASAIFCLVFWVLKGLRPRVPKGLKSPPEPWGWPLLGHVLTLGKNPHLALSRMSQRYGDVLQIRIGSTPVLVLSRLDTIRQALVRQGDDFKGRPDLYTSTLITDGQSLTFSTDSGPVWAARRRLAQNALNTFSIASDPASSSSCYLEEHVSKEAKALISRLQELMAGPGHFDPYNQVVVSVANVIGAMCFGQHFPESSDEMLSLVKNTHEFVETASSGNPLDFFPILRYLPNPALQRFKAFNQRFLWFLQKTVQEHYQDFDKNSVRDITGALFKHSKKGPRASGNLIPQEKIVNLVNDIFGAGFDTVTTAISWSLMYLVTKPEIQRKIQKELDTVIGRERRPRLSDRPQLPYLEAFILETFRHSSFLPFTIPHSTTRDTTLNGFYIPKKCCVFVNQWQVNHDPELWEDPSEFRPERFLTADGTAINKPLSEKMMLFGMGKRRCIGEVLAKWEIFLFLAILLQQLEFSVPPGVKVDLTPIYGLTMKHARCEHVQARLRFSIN

[22] = biological target: Cytochrome P450 3A4 (Homo sapiens, UniProt P08684);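 note: CYP3A4 tested as one member of a cytochrome P450 panel screen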
Cytochrome P450 3A4, sequence (P08684 whole entry): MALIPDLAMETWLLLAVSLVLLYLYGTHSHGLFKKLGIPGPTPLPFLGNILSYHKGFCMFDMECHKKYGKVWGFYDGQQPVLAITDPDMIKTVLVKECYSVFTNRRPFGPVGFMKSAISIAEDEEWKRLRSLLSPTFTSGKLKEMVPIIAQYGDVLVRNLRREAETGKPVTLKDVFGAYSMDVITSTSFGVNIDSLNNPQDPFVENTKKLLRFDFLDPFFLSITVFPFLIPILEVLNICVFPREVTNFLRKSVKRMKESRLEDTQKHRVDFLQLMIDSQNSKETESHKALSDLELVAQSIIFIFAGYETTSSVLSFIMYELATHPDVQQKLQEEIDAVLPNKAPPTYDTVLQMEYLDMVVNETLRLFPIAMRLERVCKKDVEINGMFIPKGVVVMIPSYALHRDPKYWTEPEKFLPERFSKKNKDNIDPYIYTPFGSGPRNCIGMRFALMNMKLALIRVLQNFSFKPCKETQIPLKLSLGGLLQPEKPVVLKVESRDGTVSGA

## O=C(Nc1ccc(Br)c2ccccc12)c1ccc2ccccc2c1O
[1]
  IC50: 1.91 µM (active)
[2]
  EC50: 790 nM (active)
[3]
  IC50: 2.6 µM (active)
[4]
  IC50: 13.7 µM (active)

## COc1ccc(-c2nn3c(C4CCCCC4)nnc3s2)cc1OC
[5]
  EC50: 18.1 µM (active)
[6]
  EC50: 15.5 µM (active)
[7]
  EC50: > 59.7 µM (inactive)
[8]
  EC50: 13.5 µM (active)
[9]
  EC50: > 59.7 µM (inactive)

## c1cncc(CNCc2cccnc2)c1
[10]
  AC50: inconclusive

## O=S(=O)(Nc1c(O)ccc2ccccc12)c1cccc2ccccc12
[11]
  IC50: 39.2 µM (inactive)
[12]
  EC50: 15.7 µM (active)
[13]
  IC50: 56.9 µM (inactive)
[14]
  EC50: 1.77 µM (active)
[15]
  AC50: 4.4 µM (active)
[16]
  IC50: 13.1 µM (inactive)
[17]
  IC50: 2.85 µM (active)

## COc1ccc(NS(=O)(=O)c2ccc(NC(=O)c3ccc(CN4CCOCC4)cc3)cc2)cc1
[18]
  IC50: 2.94 µM (active)
[1]
  IC50: 7.65 µM (active)
[2]
  EC50: 4220 nM (active)
[19]
  EC50: > 29.9 µM (inactive)
[3]
  IC50: 5.35 µM (active)
[4]
  IC50: > 20 µM (inactive)

## CCc1ccc(NC(=O)CCn2nc(C)c(S(=O)(=O)N3CCCCC3)c2C)cc1
[7]
  EC50: > 59.7 µM (inactive)
[9]
  EC50: > 59.7 µM (inactive)

## O=C1C=CC(O)C2(CO)OC12 (stereo unspecified)
[7]
  EC50: > 59.6 µM (inactive)
[9]
  EC50: > 59.6 µM (inactive)

## CC(C)C(=O)N/N=C/c1ccc(OCc2ccccc2)cc1
[10]
  AC50: inconclusive
[20]
  AC50: 10 µM (inconclusive)
[21]
  AC50: 15.8 µM (inconclusive)
[22]
  AC50: inconclusive
